Measured values taken from patent publication US9883999B2, “Method for solubilizing rutin with polyhydroxy alkyl alcohols” (Colgate-Palmolive Company, priority 2013, dated 2018).

Tests used:
[1] = test system: exfoliated human oral mucosal cells; test: Protective (anti-oxidation) efficacy of rutin solutions by cell staining method (Janus Green B, H2O2/Fe2+ challenge); type: cell-based; details: larger ΔE*a,b = stronger protection
Procedure: Rutin is dissolved in water to prepare a range of different levels of rutin solution. The protective efficacy of rutin solutions is measured using a cell staining method. In this method, the morphology of exfoliated human oral mucosal cells contacted with various concentrations of rutin is disclosed with Janus Green B dye. Photographic digital images are obtained using a light microscope with a 40× or 100× objective lenses connected to a digital camera. The color difference between the cell plasma and the area outside the cell, ΔE*a,b, is determined using the CIE L*a*b* system. The larger the ΔE*a,b value, the stronger the protective efficacy. The method includes the following steps: • 1. Human mucosal cells are collected and mixed with 1 mL Ringer solution, 0.5 mL Fe^2+ and 0.5 mL HAc—Ac buffer in a 5 mL Eppendorf tube. • 2. The cell suspension is then equally divided into two tubes. To the first tube is added 0.2 mL of 20 mM H2O2. To the second tube is added 0.2 mL Ringer solution. • 3. After 10 min, one drop of the above treated samples is placed on a microscope slide and stained with one drop of 0.1% Janus Green B for 1 h or longer. • 4. After staining, the cells are observed under the light microscope. Digital images are also acquired and ΔE*a, b is measured.

[2] = Initial evaluation of solubilizing agents for rutin by relative clarity of the solutions; type: physicochemical; details: 0.5% rutin added to 10 g of each test solubilizer; propylene glycol best, sorbitol worst

C[C@@H]1O[C@@H](OC[C@H]2O[C@@H](Oc3c(-c4ccc(O)c(O)c4)oc4cc(O)cc(O)c4c3=O)[C@H](O)[C@@H](O)[C@@H]2O)[C@H](O)[C@H](O)[C@H]1O [rutin, 2-(3,4-dihydroxyphenyl)-5,7-dihydroxy-3-[α-L-rhamnopyranosyl-(1→6)-β-D-glucopyranosyloxy]-4H-chromen-4-one]
Protective efficacy (ΔE*a, b) ([1]; rutin concentration 0.5 mM in water): 5.5
Protective efficacy (ΔE*a, b) ([1]; rutin concentration 1.0 mM in water): 24.7
Protective efficacy (ΔE*a, b) ([1]; rutin concentration 2.0 mM in water): 38.9
solubility capability of the humectants, ranked [2]: propylene glycol>>glycerin>PEG600≈PEG-40 hydrogenated castor oil>sorbitol
